According to ChEMBL document CHEMBL1201862, “PubChem BioAssay data set” (2004):
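Protocol summary: plate cells (96-well), add compound at 5 concentrations, incubate 48 h, interpolate endpoints linearly. GI50: concentration for 50% inhibition of growth.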 The source made the active and inactive calls. Rule as the data show it: active = GI50 up to about 1.1 µM and inactive = higher.

Tests used:
Assay in all cases: growth of human tumour cells (NCI), 48 h
LOX IMVI = test system: LOX IMVI
TK-10 = test system: TK-10
MDA-N = test system: MDA-N
A549 = test system: A549
OVCAR-3 = test system: OVCAR-3
SF-539 = test system: SF-539
MOLT-4 = test system: MOLT-4
K562 = test system: K562
SNB-19 = test system: SNB-19
OVCAR-5 = test system: OVCAR-5
SF-268 = test system: SF-268
SK-MEL-28 = test system: SK-MEL-28
OVCAR-4 = test system: OVCAR-4
T47D = test system: T47D
HCC 2998 = test system: HCC 2998
HOP-62 = test system: HOP-62
SR = test system: SR
DU-145 = test system: DU-145
UACC-257 = test system: UACC-257
RXF 393 = test system: RXF 393

Measured: GI50

N#C/C(=C\c1cc(O)c(O)c(O)c1)C(N)=O
inactive: LOX IMVI 41.3 µM | TK-10 > 100 µM | MDA-N > 62.4 µM | A549 > 100 µM | OVCAR-3 > 72.8 µM | SF-539 > 100 µM | MOLT-4 52.5 µM | K562 62.2 µM | SNB-19 > 100 µM | OVCAR-5 > 100 µM | SF-268 67.3 µM | SK-MEL-28 > 100 µM | OVCAR-4 74.8 µM | T47D > 100 µM | HCC 2998 > 100 µM | HOP-62 > 87.3 µM | SR > 47.5 µM | DU-145 97.7 µM | UACC-257 > 100 µM | RXF 393 > 100 µM

Cc1ccc(/C=N/Nc2cc(C)c3cccc(C)c3n2)s1
inactive: LOX IMVI 1.63 µM | TK-10 14.7 µM | MDA-N 8.89 µM | A549 6.31 µM | OVCAR-3 8.02 µM | SF-539 13.9 µM | MOLT-4 3.21 µM | K562 3.46 µM | SNB-19 26.5 µM | OVCAR-5 9.91 µM | SF-268 6.73 µM | SK-MEL-28 22.3 µM | OVCAR-4 13.9 µM | T47D 4.15 µM | HCC 2998 6.38 µM | HOP-62 11.8 µM | SR 2.71 µM | DU-145 10.5 µM | UACC-257 18.7 µM | RXF 393 9.86 µM

NCCCCC(N)C(=O)NCCNc1ccc(NCCNC(=O)C(N)CCCCN)c2c1C(=O)c1ccccc1C2=O (stereo not drawn)
inactive: LOX IMVI 9.35 µM | TK-10 > 94.4 µM | MDA-N > 100 µM | A549 63 µM | OVCAR-3 > 100 µM | SF-539 7.62 µM | MOLT-4 4.39 µM | K562 > 33.4 µM | SNB-19 > 36.9 µM | OVCAR-5 > 74.3 µM | SF-268 > 100 µM | SK-MEL-28 > 100 µM | OVCAR-4 > 100 µM | T47D > 100 µM | HCC 2998 16.4 µM | HOP-62 9.46 µM | SR 4.91 µM | DU-145 > 100 µM | UACC-257 > 100 µM | RXF 393 9.86 µM

C#CCCOC(=O)CC1=C(C)/C(=C/c2ccc([S+](C)[O-])cc2)c2ccc(F)cc21 (stereo not drawn)
inactive: LOX IMVI 14.9 µM | TK-10 28.3 µM | MDA-N 6.67 µM | OVCAR-3 15.4 µM | SF-539 16.2 µM | MOLT-4 17.5 µM | K562 13.2 µM | SNB-19 13.6 µM | OVCAR-5 34.2 µM | SF-268 20.6 µM | OVCAR-4 19.2 µM | T47D 20.1 µM | HCC 2998 10.4 µM | HOP-62 27.2 µM | SR 3.47 µM | DU-145 17.2 µM | UACC-257 15.7 µM | RXF 393 21.4 µM

CC1C[C@]2(C)C(NCCN)=Nc3ccccc3[C@@H]2N(C)c2ccccc21 (stereo partly drawn)
inactive: LOX IMVI 12.7 µM | TK-10 9.29 µM | MDA-N 13.9 µM | A549 16.4 µM | OVCAR-3 11.1 µM | SF-539 12.4 µM | MOLT-4 27.8 µM | K562 11.9 µM | SNB-19 13.4 µM | OVCAR-5 14 µM | SF-268 13.9 µM | SK-MEL-28 11.2 µM | OVCAR-4 16.3 µM | T47D 15.1 µM | HCC 2998 2.9 µM | HOP-62 16.1 µM | SR 2.81 µM | DU-145 15.1 µM | UACC-257 5.04 µM | RXF 393 8.85 µM

CN(CCCN(C)Cc1ccc(Cl)c(Cl)c1)CCN1CCCC1
inactive: LOX IMVI 14.4 µM | TK-10 24.2 µM | MDA-N 4.32 µM | A549 19.1 µM | OVCAR-3 60.3 µM | SF-539 16.7 µM | MOLT-4 6.27 µM | K562 4.67 µM | SNB-19 22.5 µM | OVCAR-5 28.7 µM | SF-268 27.5 µM | SK-MEL-28 1.93 µM | OVCAR-4 66.7 µM | T47D 29.9 µM | HCC 2998 3.5 µM | HOP-62 26.5 µM | SR 8.45 µM | DU-145 62.1 µM | UACC-257 2.62 µM | RXF 393 15.1 µM

O=[N+]([O-])/C(C(Cl)=C(Cl)Cl)=C(\SCc1ccccc1)N1CCCCC1
inactive: LOX IMVI 15.9 µM | TK-10 38.4 µM | MDA-N 17.5 µM | A549 30.9 µM | OVCAR-3 14.1 µM | SF-539 21.5 µM | MOLT-4 10.7 µM | K562 27.8 µM | SNB-19 56.2 µM | OVCAR-5 20.4 µM | SF-268 23.7 µM | SK-MEL-28 37.2 µM | OVCAR-4 15 µM | T47D 8.43 µM | HCC 2998 23.4 µM | HOP-62 38.4 µM | SR 8.34 µM | DU-145 41.3 µM | UACC-257 28.4 µM | RXF 393 19.7 µM
